# Data from ChEMBL document CHEMBL5634152, “The discovery of water-soluble indazole derivatives as potent microtubule polymerization inhibitors” (Eur J Med Chem, 2023).
# Calls of active or inactive are those of the source. No cut-off for these calls is given here.
# Tests used:
# Tubulin (Homo sapiens) = Tubulin (Homo sapiens) (UniProt P68371+Q9H4B7+P0DPH7+P68366+Q13509+Q71U36+P04350+Q3ZCM7+P07437+P68363+Q9BQE3+Q6PEY2+Q13885+Q9BVA1+Q9BUF5); test: Binding affinity to tubulin polymerization at colchicine-binding site in human A549 cells assessed as N,N'-ethylene- bis(iodoacetamide)/beta-tubulin adduct formation at 5 to 25 uM incubated for 2 hrs by chemiluminescence based assay; type: cell-based; conditions: dose 5-25 µM
# T-24 = test: cells; conditions: Homo sapiens
# Description: Antiproliferative activity against human T-24 cells assessed as cell growth inhibition incubated for72 hrs by MTT assay
# A549 [1] = test: cells; conditions: Homo sapiens
# Description: Antiproliferative activity against human A549 cells assessed as cell growth inhibition incubated for72 hrs by MTT assay
# Huh-7 = test: cells; conditions: Homo sapiens
# Description: Antiproliferative activity against human Huh-7 cells assessed as cell growth inhibition incubated for72 hrs by MTT assay
# A549 [2] = test: Antitumor activity against human A549 cells xenografted in Balb/c nude mouse assessed as tumor growth inhibition at 25 mg/kg, IG qd for 21 days relative to control; type: functional; conditions: A549, po, 504 h, time 21 day, read-out: TGI
# [3] = Aqueous solubility of compound in pH 7.4 at 10 mg/ml by HPLC analysis; type: physicochemical; conditions: buffer, read-out: solubility
# [4] = Lipophilicity, logP of compound in n-octanol-water at 5 mg/ml incubated for 8 hrs by HPLC analysis; type: physicochemical
# A549/TR = test: Antiproliferative activity against human A549/Taxol cells assessed as cell growth inhibition incubated for72 hrs by MTT assay; type: functional, cell-based
# [5] = Resistance index, ratio of IC50 for human A549/Taxol cells to IC50 for human A549 cells; type: functional
SMILES,IC50 (T-24) [µM],IC50 (A549 [1]) [µM],IC50 (Huh-7) [µM],other results
CC[C@]1(O)C[C@H]2CN(CCc3c([nH]c4ccccc34)[C@@](C(=O)OC)(c3cc4c(cc3OC)N(C=O)[C@H]3[C@@](O)(C(=O)OC)[C@H](OC(C)=O)[C@]5(CC)C=CCN6CC[C@]43[C@@H]65)C2)C1,–,–,–,Activity (Tubulin (Homo sapiens)): inactive
COc1ccc(-n2nc(C)c3ccc(-c4cc(OC)c(OC)c(OC)c4)cc32)cn1,> 25,> 25,> 25,–
COc1ccc(-n2ncc3ccc(-c4cc(OC)c(OC)c(OC)c4)cc32)cc1,> 25,> 25,> 25,–
COc1cc(-n2nc(C)c3ccc(-c4ccc(C)cc4)cc32)cc(OC)c1OC,0.14,0.19,0.12,–
COc1cc(-n2ncc3ccc(-c4ccccc4)cc32)cc(OC)c1OC,0.08,0.052,0.042,–
COc1ccc2c(Nc3cc(OC)c(OC)c(OC)c3)n[nH]c2c1,0.13,0.06,0.054,inhibition in vivo at 25 mg/kg (A549 [2]): 47.8%; solubility [3]: 3.48 µg/mL; logP at 8 h [4]: 3.7; IC50 (A549/TR): 0.091 µM; Ratio IC50 [5]: 1.5
COc1cc(-c2ccc3c(C)nn(-c4ccc(C)cc4)c3c2)cc(OC)c1OC,> 25,> 25,> 25,–
COc1cc(-n2ncc3ccc(-c4ccncc4)cc32)cc(OC)c1OC,16.4,15.2,9.22,–
COc1cc(-c2ccc3cnn(-c4ccc(C)cc4)c3c2)cc(OC)c1OC,> 25,> 25,> 25,–
COc1cc(-c2ccc3c(C)nn(-c4ccc(OC(F)(F)F)cc4)c3c2)cc(OC)c1OC,> 25,19.5,> 25,–
COc1ccc(-c2ccc3cnn(-c4cc(OC)c(OC)c(OC)c4)c3c2)cc1,0.11,0.092,0.1,–
CCOc1ccc(-c2ccc3cnn(-c4cc(OC)c(OC)c(OC)c4)c3c2)cc1,2.28,1.45,3.73,–
COc1cc(-c2ccc3c(C)nn(-c4ccc5c(c4)CCO5)c3c2)cc(OC)c1OC,4.82,5.3,1.45,–
CC(=O)O[C@H]1C(=O)[C@@]2(C)[C@H]([C@H](OC(=O)c3ccccc3)[C@]3(O)C[C@H](OC(=O)[C@H](O)[C@@H](NC(=O)c4ccccc4)c4ccccc4)C(C)=C1C3(C)C)[C@]1(OC(C)=O)CO[C@@H]1C[C@@H]2O [PACLITAXEL],–,–,–,IC50 (A549/TR): 5.65 µM; Ratio IC50 [5]: 403.8
